Results reported in patent publication US20070010897A1, “Immunochemically modified and sterilized xenografts and allografts” (priority 2005, published 2007).

What was measured:
Reovirus 3 = test: Viral inactivation test, Reovirus 3; conditions: Reovirus 3 (NEnv./RNA); single process step (glutaraldehyde or E-beam 17.8 kGy)
Porcine Parvovirus = test: Viral inactivation test, Porcine Parvovirus; conditions: Porcine Parvovirus (NEnv./DNA); single process step (glutaraldehyde or E-beam 17.8 kGy)

`O=CCCCC=O` [Glutaraldehyde, glutaraldehyde] was tested, and the “Log10 Reduction” value (Reovirus 3) was 4.24 Log10 and the “Log10 Reduction” value (Porcine Parvovirus) was 1.91 Log10.
